Like-named read-outs stand apart in the source and are kept apart here.
Columns and labels:
[1] = target: T1, CT-L activity of purified rabbit 20S proteasome (Oryctolagus cuniculus, UniProt G1SU71+G1T4Q9); test: Fluorometric assay of CT-L proteolytic activity of purified 20S proteasome; format: biochemical
T1 sequence (G1T4Q9 60-263): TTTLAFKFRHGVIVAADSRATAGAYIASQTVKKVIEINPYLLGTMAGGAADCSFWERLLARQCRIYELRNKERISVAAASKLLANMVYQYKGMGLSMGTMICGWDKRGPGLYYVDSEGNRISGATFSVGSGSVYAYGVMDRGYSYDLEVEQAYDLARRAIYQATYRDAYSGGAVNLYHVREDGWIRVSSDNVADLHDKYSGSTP
T1 sequence (G1SU71 29-241): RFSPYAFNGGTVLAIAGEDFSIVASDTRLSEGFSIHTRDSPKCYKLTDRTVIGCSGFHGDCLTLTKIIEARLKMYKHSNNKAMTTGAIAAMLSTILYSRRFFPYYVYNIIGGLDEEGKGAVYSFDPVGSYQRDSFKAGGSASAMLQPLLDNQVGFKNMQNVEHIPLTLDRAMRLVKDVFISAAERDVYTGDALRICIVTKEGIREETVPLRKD

[2] = system: CT-L activity of rabbit 20S proteasome; test: Dialysis; format: biochemical; conditions: compounds 10 µM; for inhibition of CT-L activity of the 20S proteasome in the absence of dialysis: 3 nM rabbit 20S proteasome, 30 min pre-incubation, no dialysis; for time of dialysis at which CT-L activity started to recover: dialysis at 4 °C against assay buffer
[3] = system: human breast and lung tumors implanted as xenografts; conditions: nude mice; cited from earlier work
[4] = system: MCF-7 cells; conditions: read-out: IC50 cell viability; cited from earlier work
[5] = system: purified Calpain; test: Inhibition of purified Calpain; format: biochemical; conditions: read-out: IC50 purified Calpain; data not reported in the paper
[6] = system: cancer cell lines derived from prostate, lung and multiple myeloma; conditions: cited from earlier work
[7] = system: primary cells derived from patients with multiple myeloma; conditions: cited from earlier work
[8] = read-out: In vitro IC50 CT-L activity, purified rabbit 20S proteasome, Suc-Leu-Leu-Val-Tyr-AMC, 1 hour at 37 °C, pH 7.6, tested in triplicate at least twice

Row | Molecule | IC50 [1] | also measured
1 | 4-(6-amino-3-chloro-1,4-dioxo-1,4-dihydronaphthalen-2-ylamino)-N- (pyridin-2-yl)benzenesulfonamide and 4-(7-amino-3-chloro-1,4-dioxo-1,4-dihydronaphthalen-2-ylamino)- N-(pyridin-2-yl)benzenesulfonamide [Compound 8] | – | inhibitory activity in the in vitro enzymatic assay ([1]; CT-L, mixtures of isomers): did not lead to any appreciable inhibitory activities
2 | O=C1C=CC(=O)c2ccccc21 [1,4-naphthoquinone] | > 100 µM | –
3 | O=C1C(Cl)=C(Cl)C(=O)c2ccccc21 [2,3-dichloronaphthoquinone] | – | IC50 [1, 8]: > 100 µM
4 | CC1=CC(=O)c2ccccc2C1=O [2-methyl-1,4-naphthoquinone] | > 100 µM | –
5 | CC(C)C[C@H](NC(=O)[C@H](Cc1ccccc1)NC(=O)c1cnccn1)B(O)O [Bortezomib, reference compound] | – | inhibition of CT-L activity of the 20S proteasome in the absence of dialysis [2]: 99%; time of dialysis at which CT-L activity started to recover [2]: 4 h
6 | COc1cnc(NS(=O)(=O)c2ccc(NC3=C(Cl)C(=O)c4ccccc4C3=O)cc2)nc1 [Compound 2e, 4-(3-Chloro-1,4-dioxo-1,4-dihydronaphthalen-2-ylamino)-N-(5-methoxypyrimidin-2-yl)benzenesulfonamide] | 100 µM | –
7 | COc1cc(NS(=O)(=O)c2ccc(NC3=C(Cl)C(=O)c4ccccc4C3=O)cc2)nc(OC)n1 [Compound 2i, 4-(3-Chloro-1,4-dioxo-1,4-dihydronaphthalen-2-ylamino)-N-(2,6-dimethoxypyrimidin-4-yl)-benzenesulfonamide] | 100 µM | –
8 | CC1=C(Nc2ccc(S(=O)(=O)Nc3ccccn3)cc2)C(=O)c2ccccc2C1=O [Compound 2k, 4-(3-Methyl-1,4-dioxo-1,4-dihydronaphthalen-2-ylamino)-N-(pyridin-2-yl)benzenesulfonamide] | > 100 µM | –
9 | CC1=C(Nc2ccc(S(=O)(=O)NC(=O)c3ccccc3)cc2)C(=O)c2ccccc2C1=O [Compound 2l, N-(4-(3-methyl-1,4-dioxo-1,4-dihydronaphthalen-2-ylamino)phenylsulfonyl) benzamide] | > 100 µM | –
10 | COc1cnc(NS(=O)(=O)c2ccc(NC3=C(C)C(=O)c4ccccc4C3=O)cc2)nc1 [Compound 2m, N-(5-methoxypyrimidin-2-yl)-4-(3-methyl-1,4-dioxo-1,4-dihydronaphthalen-2-ylamino)-benzenesulfonamide] | > 100 µM | –
11 | O=C(NS(=O)(=O)c1ccc(NC2=CC(=O)c3ccccc3C2=O)cc1)c1ccccc1 [Compound 2p, N-(4-(1,4-dioxo-1,4-dihydronaphthalen-2-ylamino)phenylsulfonyl)benzamide] | > 100 µM | –
12 | Cc1cc(NS(=O)(=O)c2ccc(NC3=CC(=O)c4ccccc4C3=O)cc2)no1 [Compound 2q, 4-(1,4-Dioxo-1,4-dihydronaphthalen-2-ylamino)-N-(5-methylisoxazol-3-yl)benzenesulfonamide] | > 100 µM | –
13 | O=C1C=C(Nc2ccc(S(=O)(=O)Nc3ccccn3)cc2)C(=O)c2ccccc21 [Compound 2r, 4-(1,4-Dioxo-1,4-dihydronaphthalen-2-ylamino)-N-(pyridin-2-yl)benzenesulfonamide] | > 100 µM | –
14 | NS(=O)(=O)c1ccc(NC2=C(Cl)C(=O)c3ccccc3C2=O)cc1 [Compound 2t, 4-(3-Chloro-1,4-dioxo-1,4-dihydronaphthalen-2-ylamino)benzenesulfonamide] | > 100 µM | –
15 | O=C1C(Cl)=C(Nc2ccc(S(=O)(=O)Nc3ccc(Cl)cc3)cc2)C(=O)c2ccccc21 [Compound 2u, 4-(3-Chloro-1,4-dioxo-1,4-dihydronaphthalen-2-ylamino)-N-(4-chlorophenyl)benzenesulfonamide] | > 100 µM | –
16 | O=C1C(Cl)=C(Nc2ccc(S(=O)(=O)Nc3ccc(F)cc3F)cc2)C(=O)c2ccccc21 [Compound 2v, 4-(3-Chloro-1,4-dioxo-1,4-dihydronaphthalen-2-ylamino)-N-(2,4-difluorophenyl)benzenesulfonamide] | > 100 µM | –
17 | O=C1C(Cl)=C(Nc2ccc(S(=O)(=O)Nc3ccc(Cl)cc3Cl)cc2)C(=O)c2ccccc21 [Compound 2w, 4-(3-Chloro-1,4-dioxo-1,4-dihydronaphthalen-2-ylamino)-N-(2,4-dichlorophenyl)benzenesulfonamide] | > 100 µM | –
18 | CN(C1=C(Cl)C(=O)c2ccccc2C1=O)c1ccc(S(=O)(=O)Nc2ccccn2)cc1 [Compound 6a, 4-((3-Chloro-1,4-dioxo-1,4-dihydronaphthalen-2-yl)(methyl)amino)-N-(pyridin-2-yl) benzenesulfonamide] | – | IC50 [1, 8]: > 100 µM
19 | CCN(C1=C(Cl)C(=O)c2ccccc2C1=O)c1ccc(S(=O)(=O)Nc2ccccn2)cc1 [Compound 6b, 4-((3-Chloro-1,4-dioxo-1,4-dihydronaphthalen-2-yl)(ethyl)amino)-N-(pyridin-2-yl) benzenesulfonamide] | – | IC50 [1, 8]: > 100 µM
20 | O=C1C(Cl)=C(N(Cc2ccccc2)c2ccc(S(=O)(=O)Nc3ccccn3)cc2)C(=O)c2ccccc21 [Compound 6c, 4-(Benzyl(3-chloro-1,4-dioxo-1,4-dihydronaphthalen-2-yl)amino)-N-(pyridin-2-yl) benzenesulfonamide] | – | IC50 [1, 8]: > 100 µM
21 | O=C1C(Cl)=C(Nc2ccc(S(=O)(=O)Nc3ccccn3)cc2)C(=O)c2ccccc21 [PI-083, 4-(3-Chloro-1,4-dioxo-1,4-dihydronaphthalen-2-ylamino)-N-(pyridin-2-yl)benzenesulfonamide] | – | growth of human breast and lung tumor xenografts [3]: suppresses the growth; inhibition of CT-L activity of the 20S proteasome in the absence of dialysis [2]: 88%; time of dialysis at which CT-L activity started to recover [2]: 1 h; IC50 [4]: 2.31 ± 0.1 µM; IC50 [5]: > 30 µM; apoptosis in cancer cell lines [6]: induces apoptosis; proliferation and survival of primary cells [7]: efficient in inhibiting proliferation and survival
22 | Nc1ccc(S(=O)(=O)Nc2ccccn2)cc1 [sulfapyridine] | > 100 µM | –

Second part, led by results:

Row | IC50 [1] | Molecule | also measured
23 | > 100 µM | O=C1C(Cl)=C(N(Cc2ccc([N+](=O)[O-])cc2)c2ccc(S(=O)(=O)Nc3ccccn3)cc2)C(=O)c2ccccc21 [Compound 6d, 4-((3-Chloro-1,4-dioxo-1,4-dihydronaphthalen-2-yl)(4-nitrobenzyl)amino)-N-(pyridin-2-yl)benzenesulfonamide] | –
24 | > 100 µM | O=C1C(Cl)=C(N(Cc2ccc3ccccc3c2)c2ccc(S(=O)(=O)Nc3ccccn3)cc2)C(=O)c2ccccc21 [Compound 6e, 4-((3-Chloro-1,4-dioxo-1,4-dihydronaphthalen-2-yl)(naphthalen-2-ylmethyl)amino)-N-(pyridin-2-yl)benzenesulfonamide] | –
25 | > 100 µM | Cc1ccc(CN(C2=C(Cl)C(=O)c3ccccc3C2=O)c2ccc(S(=O)(=O)Nc3ccccn3)cc2)cc1 [Compound 6f, 4-((3-Chloro-1,4-dioxo-1,4-dihydronaphthalen-2-yl)(4-methylbenzyl)amino)-N-(pyridin-2-yl)benzenesulfonamide] | –
26 | > 100 µM | O=C1C(Cl)=C(N(Cc2ccc(C(F)(F)F)cc2)c2ccc(S(=O)(=O)Nc3ccccn3)cc2)C(=O)c2ccccc21 [Compound 6g, 4-((3-Chloro-1,4-dioxo-1,4-dihydronaphthalen-2-yl)(4-(trifluoromethyl)benzyl)amino)-N-(pyridin-2-yl)benzenesulfonamide] | –

Source: article PMC3530924 (Bioorganic & medicinal chemistry, 2010)
